Read-outs that look alike come from different tables or passages of the source.
Experiments:
MES-induced seizures = assay: Maximal Electroshock Seizure (MES) test, mice; format: in vivo; conditions: Mus musculus, ip, mice, i.p.
Summary of the method: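 Seizures were induced by a 60 Hz corneal current for 2 s (50 mA in CF1 mice, 150 mA in Sprague-Dawley rats). Mice received 30, 100 or 300 mg/kg i.p. in 0.5% methylcellulose and were tested at several intervals; rats received 30 mg/kg p.o. Protection means abolition of hind-limb tonic extension.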

[1] = Acute toxicity, minimal motor impairment (rotorod), mice; format: in vivo; conditions: mice, rotorod
Summary of the method: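 Mice placed on a rod rotating at 6 rpm; a compound is scored toxic when the animal falls off three times within 1 min. In rats, minimal motor deficit is scored as ataxia, an abnormal uncoordinated gait.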

CCOC(=O)C1[C@@H]2[C@@H](O)[C@@H]3O[C@H](c4ccc(OC)cc4)OC[C@H]3O[C@H]12 (stereo partly drawn) [Compound 16, ethyl (2R,4aR,5aS,6aR,7R,7aS)-7-hydroxy-2-(4-methoxyphenyl)hexahydro-4H-cyclopropa[5,6]pyrano[3,2-d][1,3]dioxine-6-carboxylate]
responders at 30 mg/kg (MES-induced seizures; 0.5 h, read-out: MES 30 0.5 h (animals protected/tested)): 0% | responders at 30 mg/kg (MES-induced seizures; 4 h, read-out: MES 30 4 h (animals protected/tested)): 0% | responders at 100 mg/kg (MES-induced seizures; 0.5 h, read-out: MES 100 0.5 h (animals protected/tested)): 0% | responders at 100 mg/kg (MES-induced seizures; 4 h, read-out: MES 100 4 h (animals protected/tested)): 0% | responders at 300 mg/kg (MES-induced seizures; 0.5 h, read-out: MES 300 0.5 h (animals protected/tested)): 0% | responders at 300 mg/kg (MES-induced seizures; 4 h, read-out: MES 300 4 h (animals protected/tested)): 0% | TOX 30 0.5 h (animals toxic/tested) ([1]; 30 mg/kg, 0.5 h): 0/4 | TOX 30 4 h (animals toxic/tested) ([1]; 30 mg/kg, 4 h): 0/2 | TOX 100 0.5 h (animals toxic/tested) ([1]; 100 mg/kg, 0.5 h): 2/8 | TOX 100 4 h (animals toxic/tested) ([1]; 100 mg/kg, 4 h): 0/4 | TOX 300 0.5 h (animals toxic/tested) ([1]; 300 mg/kg, 0.5 h): 3/4 | TOX 300 4 h (animals toxic/tested) ([1]; 300 mg/kg, 4 h): 1/2

Source: patent US8222218B2, “Cyclopropanated carbohydrates” (Seton Hall University, priority 2008, dated 2012)
